Reference: patent publication US7879876B2, “Sulfonamide derivatives and use thereof for the modulation of metalloproteinases” (Merck Serono SA, priority 2005, dated 2011)

How the values were obtained:
Type in all cases: biochemical
human ADAM17 (TACE) = human ADAM17 (TACE) (Homo sapiens, UniProt P78536); assay: TACE enzyme inhibition assay
Method: Compounds of the invention were tested to assess their activities as inhibitors of MMP-1, MMP-2, MMP-9, MMP-14, MMP-12 and TACE. MMP-9 Assay Protocol
Compounds of the invention can be tested for inhibitory activity against human ADAM17 in an assay using human Mca-(endo-1a-Dap(Dnp)-TNF-alpha(−5 to +6)amide as substrate (FEBS Letters, 2000, 275-279).
Stock solutions are prepared as followed: • Assay Buffer: 20 mM Hepes pH 7.5 (Fluka) containing 0.05% Brij 35 (Fluka) • Substrate: 6.1 mM human Mca-(endo-1a-Dap(Dnp)-TNF-alpha(−5 to +6)amide (Bachem) stock solution in 100% DMSO (stored at −20° C.); diluted to 5 μM in assay buffer. • Enzyme: Recombinant human ADAM17, appropriately diluted in assay buffer (1.5 μg/ml).
Test Compounds are prepared initially as 10 mM compound solution in 100% DMSO, diluted to 1 mM in 100% DMSO, then serially diluted 3-fold in 100% DMSO across a 96-well microtitre plate. Assay concentration range is typically between 100 μM to 0.01 nM. The assay is performed in a total volume of 100 μL per well in 96-well microtitre plates. Appropriate concentrations of test compounds dissolved in 10 μL of DMSO are added to the wells, followed by substrate solution (50 μL, 5 μM prepared by dilution of DMSO stock in assay buffer) and enzyme solution (40 μL). For each as say ten concentrations of test compound are examined in […]. Control wells lack either enzyme or test compound. The reactions are incubated at room temperature for 1.5 hours. The fluorescence at 405 nm is measured immediately with a fluorometer using 355 nm excitation, without stopping the reaction.
The effect of the test compound is determined from the dose response curve generated by the 10 duplicate concentrations of inhibitor. The IC50 (the concentration of compound required to give a 50% decrease in enzyme activity) is obtained by fitting data to the equation, Y=a+((b−a)/(1+(c/X)^d)). (Y=inhibition achieved for a particular dose; X=the dose in nM; a=minimum y or zero % inhibition; b=maximum y or 100% inhibition; c=is the IC50; d=is the slope). The result is rounded to one significant figure.

[1] = target: 92 kDa gelatinase (MMP-9) (Homo sapiens, UniProt P14780); assay: MMP-9 enzyme inhibition assay (coumarin-labeled peptide substrate); conditions: read-out: percentage inhibition MMP9
Summary of the method: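 Recombinant human MMP-9 (APMA-activated if needed) was assayed in 100 mM Tris-HCl pH 7.6, 100 mM NaCl, 10 mM CaCl2, 0.05% Brij 35, with McaPLGLDpaAR substrate at 37° C. for 2 h. Fluorescence was read at ex 320/em 405 nm over ten 3-fold compound doses (100 μM–5.1 nM) in duplicate. IC50 came from a four-parameter fit.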

collagenase (MMP-1) = target: T1, collagenase (MMP-1) (Homo sapiens, UniProt P03956); assay: MMP-1 enzyme inhibition assay (coumarin-labelled peptide substrate); conditions: read-out: percentage inhibition MMP1
T1 sequence (P03956 100-469): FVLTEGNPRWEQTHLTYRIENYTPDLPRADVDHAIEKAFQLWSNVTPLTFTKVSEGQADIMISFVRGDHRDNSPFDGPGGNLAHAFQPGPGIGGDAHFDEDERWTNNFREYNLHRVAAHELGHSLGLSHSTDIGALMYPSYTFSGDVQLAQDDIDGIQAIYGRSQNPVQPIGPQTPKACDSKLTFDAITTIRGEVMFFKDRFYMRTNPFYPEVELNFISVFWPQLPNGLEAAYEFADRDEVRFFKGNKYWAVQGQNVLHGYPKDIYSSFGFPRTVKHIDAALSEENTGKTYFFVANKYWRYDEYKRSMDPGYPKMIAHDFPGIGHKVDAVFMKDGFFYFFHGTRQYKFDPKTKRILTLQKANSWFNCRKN
Summary of the method: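 Recombinant human MMP-1, APMA-activated if needed, in Tris-HCl pH 7.6 with NaCl, CaCl2 and 0.05% Brij 35; McaPLGLDpaAR substrate added as 8 μM solution, 2 h at 37 °C. Fluorescence (320/405 nm) read without stopping; IC50 from 10 duplicate concentrations (100 μM–5.1 nM) by four-parameter fit.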

Chain of 92 kDa gelatinase (MMP-9) (P14780 107-707 limits assumed): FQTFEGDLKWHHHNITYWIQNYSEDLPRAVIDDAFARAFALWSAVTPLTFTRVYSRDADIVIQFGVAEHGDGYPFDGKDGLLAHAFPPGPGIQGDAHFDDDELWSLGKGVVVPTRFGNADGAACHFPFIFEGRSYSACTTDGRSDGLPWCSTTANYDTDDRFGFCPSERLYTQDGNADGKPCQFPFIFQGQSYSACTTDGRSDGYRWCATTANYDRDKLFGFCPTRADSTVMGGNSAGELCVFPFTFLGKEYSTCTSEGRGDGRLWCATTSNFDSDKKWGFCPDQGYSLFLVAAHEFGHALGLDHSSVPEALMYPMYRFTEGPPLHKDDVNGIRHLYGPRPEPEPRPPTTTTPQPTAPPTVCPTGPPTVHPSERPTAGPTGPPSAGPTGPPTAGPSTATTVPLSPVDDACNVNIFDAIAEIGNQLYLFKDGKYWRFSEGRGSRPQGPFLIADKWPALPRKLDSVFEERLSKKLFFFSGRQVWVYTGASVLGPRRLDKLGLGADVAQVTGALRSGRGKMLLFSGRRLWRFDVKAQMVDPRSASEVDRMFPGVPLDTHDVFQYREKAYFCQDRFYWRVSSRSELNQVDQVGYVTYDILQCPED
Chain of human ADAM17 (TACE) (P78536 215-824): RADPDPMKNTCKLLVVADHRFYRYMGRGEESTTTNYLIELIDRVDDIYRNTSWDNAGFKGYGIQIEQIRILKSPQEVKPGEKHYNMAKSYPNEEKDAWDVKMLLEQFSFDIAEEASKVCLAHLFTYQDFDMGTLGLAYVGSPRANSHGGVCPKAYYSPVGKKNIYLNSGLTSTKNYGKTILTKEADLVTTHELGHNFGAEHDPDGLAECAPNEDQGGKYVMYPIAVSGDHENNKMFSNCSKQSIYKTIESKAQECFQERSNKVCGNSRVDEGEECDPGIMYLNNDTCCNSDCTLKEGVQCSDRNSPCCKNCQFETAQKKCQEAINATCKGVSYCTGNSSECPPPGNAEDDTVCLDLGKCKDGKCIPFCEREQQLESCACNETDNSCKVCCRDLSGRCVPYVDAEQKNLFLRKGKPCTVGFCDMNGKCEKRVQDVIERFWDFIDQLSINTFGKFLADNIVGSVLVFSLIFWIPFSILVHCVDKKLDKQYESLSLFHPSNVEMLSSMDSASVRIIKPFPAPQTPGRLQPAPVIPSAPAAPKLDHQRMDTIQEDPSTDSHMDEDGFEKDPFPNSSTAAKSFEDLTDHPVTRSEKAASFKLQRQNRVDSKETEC

| SMILES | IC50 (human ADAM17 (TACE)) | inhibition at 5 µM [1] | inhibition at 5 µM (collagenase (MMP-1)) | inhibition at 0.1 µM ([1]; @ 0.1 μM) | inhibition at 0.1 µM (collagenase (MMP-1)) |
| --- | --- | --- | --- | --- | --- |
| CC(C)c1ccc2c(c1)CCN(S(=O)(=O)C[C@H]([C@H]1CCCO1)N(O)C=O)C2 [Example 45, N-hydroxy-N-{(1S)-2-[(6-isopropyl-3,4-dihydroisoquinolin-2(1H)-yl)sulfonyl]-1-[(2R)-tetrahydrofuran-2-yl]ethyl}formamide] | 813 nM | 47% | 2% |  |  |
| O=CN(O)C(CS(=O)(=O)N1CCc2cc(C(F)(F)F)ccc2C1)[C@H]1CCCO1 (stereo partly drawn) [Example 47, N-hydroxy-N-(1-[(2R)-tetrahydrofuran-2-yl]-2-{[6-(tri-fluoromethyl)-3,4-dihydroisoquinolin-2(1H)-yl]sulfonyl}ethyl)formamide] | 933 nM | 40% | 40% |  |  |
| O=CN(O)C(CCO)CS(=O)(=O)N1CCc2ccc(Cl)cc2C1 (stereo not drawn) [Example 48, N-(1-{[(7-chloro-3,4-dihydroisoquinolin-2(1H)-yl)sulfonyl]-methyl}-3-hydroxypropyl)-N-hydroxyformamide] | 269 nM | 8% | 26% |  |  |
| O=CN(O)C(CO)CS(=O)(=O)N1CCc2cc(Cl)c(Cl)cc2C1 (stereo not drawn) [Example 49, N-[2-[(6,7-dichloro-3,4-dihydroisoquinolin-2(1H)-yl)-sulfonyl]-1-(hydroxymethyl)ethyl]-N-hydroxyformamide] | 239 nM | 43% | 29% |  |  |
| CC(C)C(CS(=O)(=O)N1CCc2ccc(-c3ccc(F)cc3)cc2C1)N(O)C=O (stereo not drawn) [Example 50, N-[1-({[7-(4-fluorophenyl)-3,4-dihydroisoquinolin-2(1H)-yl]sulfonyl}methyl)-2-methylpropyl]-N-hydroxyformamide] | 397 nM | 72% | 0% | 4% |  |
| O=CN(O)C(CS(=O)(=O)N1CCc2ccc(F)cc2C1)c1ccoc1 (stereo not drawn) [Example 52, N-[2-[(7-fluoro-3,4-dihydroisoquinolin-2(1H)-yl)sulfonyl]-1-(3-furyl)ethyl]-N-hydroxyformamide] | 92 nM | 10% | 14% |  |  |
| O=CN(O)C(CS(=O)(=O)N1CCc2ccc(F)cc2C1)C1CCN(Cc2ccccc2)CC1 (stereo not drawn) [Example 53, N-{1-(1-benzylpiperidin-4-yl)-2-[(7-fluoro-3,4-dihydro-isoquinolin-2(1H)-yl)sulfonyl]ethyl}-N-hydroxyformamide] | 245 nM | 5% | 16% |  |  |
| CC(C)CC(CS(=O)(=O)N1CCc2ccc(Br)cc2C1)N(O)C=O (stereo not drawn) [Example 55, N-(1-{[(7-bromo-3,4-dihydroisoquinolin-2(1H)-yl)-sulfonyl]methyl}-3-methylbutyl)-N-hydroxyformamide] | 157 nM | 39% | 69% |  | 7% |
| CC(C)(CS(=O)(=O)N1CCc2ccc(Br)cc2C1)N(O)C=O [Example 56, N-{2-[(7-bromo-3,4-dihydroisoquinolin-2(1H)-yl)sulfonyl]-1,1-dimethylethyl}-N-hydroxyformamide] | > 5000 nM | 2% | 34% |  |  |
| CC(C)(C)c1ccc2c(c1)CN(S(=O)(=O)CC(COCc1ccccc1)N(O)C=O)CC2 (stereo not drawn) [Example 57, N-(2-(benzyloxy)-1-{[(7-tert-butyl-3,4-dihydroisoquinolin-2(1H)-yl)sulfonyl]methyl}ethyl)-N-hydroxyformamide] | > 5000 nM | 0% | 0% |  |  |
| O=CN(O)C(COCc1ccccc1)CS(=O)(=O)N1CCc2ccc(Cl)cc2C1 (stereo not drawn) [Example 58, N-(2-(benzyloxy)-1-{[(7-chloro-3,4-dihydroisoquinolin-2(1H)-yl)sulfonyl]methyl}ethyl)-N-hydroxyformamide] | 56 nM | 41% | 68% |  | 4% |
| O=CN(O)C(COCc1ccccc1)CS(=O)(=O)N1CCc2ccc(C(F)(F)F)cc2C1 (stereo not drawn) [Example 59, N-[2-(benzyloxy)-1-({[7-(trifluoromethyl)-3,4-dihydro-isoquinolin-2(1H)-yl]sulfonyl}methyl)ethyl]-N-hydroxyformamide] | > 5000 nM | 32% | 35% |  |  |
| O=CN(O)C(CS(=O)(=O)N1CCc2ccc(F)cc2C1)C1CCCC1 (stereo not drawn) [Example 60, N-{1-cyclopentyl-2-[(7-fluoro-3,4-dihydroisoquinolin-2(1H)-yl)sulfonyl]ethyl}-N-hydroxyformamide] | 79 nM | 0% | 6% |  |  |
| O=CN(O)C(COc1ccccc1)CS(=O)(=O)N1CCc2ccc(Cl)cc2C1 (stereo not drawn) [Example 61, N-[2-[(7-chloro-3,4-dihydroisoquinolin-2(1H)-yl)sulfonyl]-1-(phenoxymethyl)ethyl]-N-hydroxyformamide] | 89 nM | 12% | 22% |  |  |
| O=CN(O)C1(CS(=O)(=O)N2CCc3ccc(Cl)cc3C2)CCCC1 [Example 62, N-(1-{[(7-chloro-3,4-dihydroisoquinolin-2(1H)-yl)-sulfonyl]methyl}cyclopentyl)-N-hydroxyformamide] | 882 nM | 1% | 52% |  |  |
| CCCCCC(C)(C)C(CS(=O)(=O)N1CCc2cc(C(F)(F)F)ccc2C1)N(O)C=O (stereo not drawn) [Example 63, N-[2,2-dimethyl-1-({[6-(trifluoromethyl)-3,4-dihydro-isoquinolin-2(1H)-yl]sulfonyl}methyl)heptyl]-N-hydroxyformamide] | > 5000 nM | 7% | 34% |  |  |
| O=CN(O)C(CS(=O)(=O)N1CCc2ccc(Br)cc2C1)C1CCCC1 (stereo not drawn) [Example 64, N-{2-[(7-bromo-3,4-dihydroisoquinolin-2(1H)-yl)sulfonyl]-1-cyclopentylethyl}-N-hydroxyformamide] | 91 nM | 32% | 36% |  |  |
| CC(C)(C)C(CS(=O)(=O)N1CCc2ccc(Cl)cc2C1)N(O)C=O (stereo not drawn) [Example 65, N-(1-{[(7-chloro-3,4-dihydroisoquinolin-2(1H)-yl)sulfonyl]methyl}-2,2-dimethylpropyl)-N-hydroxyformamide] | 490 nM | 13% | 30% |  |  |
| O=CN(O)C(CS(=O)(=O)N1CCc2ccc(-c3ccsc3)cc2C1)C1CCCC1 (stereo not drawn) [Example 68, N-(1-cyclopentyl-2-{[7-(3-thienyl)-3,4-dihydroisoquinolin-2(1H)-yl]sulfonyl}ethyl)-N-hydroxyformamide] | 268 nM | 31% | 0% |  |  |
| O=CN(O)C(CS(=O)(=O)N1CCc2ccc(-c3ccccc3)cc2C1)C1CCCC1 (stereo not drawn) [Example 69, N-{1-cyclopentyl-2-[(7-phenyl-3,4-dihydroisoquinolin-2(1H)-yl)sulfonyl]ethyl}-N-hydroxyformamide] | 606 nM | 26% | 4% |  |  |
| O=CN(O)C(CS(=O)(=O)N1CCc2ccc(-c3cccc(O)c3)cc2C1)C1CCCC1 (stereo not drawn) [Example 70, N-(1-cyclopentyl-2-{[7-(3-hydroxyphenyl)-3,4-dihydroisoquinolin-2(1H)-yl]sulfonyl}ethyl)-N-hydroxyformamide] | > 5000 nM | 3% | 0% |  |  |
